Experimental data from publication PMC10740956, “A Multitarget Approach against Neuroinflammation: Alkyl Substituted Coumarins as Inhibitors of Enzymes Involved in Neurodegeneration” (Antioxidants, 2023).
Where “and” joins values, the source holds several entries; their conditions need not be identical. Identical values can stand only once. Entries after “also recorded” stand apart in the source; their conditions may differ. Like-named read-outs stand apart in the source and are kept apart here.

Legend:
hCA I = hCA I (Homo sapiens, UniProt P00915); assay: stopped flow CO2 hydrase assay, hCA I; type: biochemical; conditions: mean of 3 different assays
Chain of hCA I (P00915 whole entry): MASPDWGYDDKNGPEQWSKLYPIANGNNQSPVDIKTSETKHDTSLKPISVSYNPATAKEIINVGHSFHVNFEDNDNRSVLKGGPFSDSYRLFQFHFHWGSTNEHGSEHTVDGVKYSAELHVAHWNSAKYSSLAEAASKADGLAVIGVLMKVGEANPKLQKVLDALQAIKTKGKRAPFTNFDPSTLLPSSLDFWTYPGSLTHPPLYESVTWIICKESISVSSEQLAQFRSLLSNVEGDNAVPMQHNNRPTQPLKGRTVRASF

hCA II = hCA II (Homo sapiens, UniProt P00918); assay: stopped flow CO2 hydrase assay, hCA II; type: biochemical; conditions: mean of 3 different assays
hCA VII = hCA VII (Homo sapiens, UniProt P43166); assay: stopped flow CO2 hydrase assay, hCA VII; type: biochemical; conditions: mean of 3 different assays
Chain of hCA VII (P43166 whole entry): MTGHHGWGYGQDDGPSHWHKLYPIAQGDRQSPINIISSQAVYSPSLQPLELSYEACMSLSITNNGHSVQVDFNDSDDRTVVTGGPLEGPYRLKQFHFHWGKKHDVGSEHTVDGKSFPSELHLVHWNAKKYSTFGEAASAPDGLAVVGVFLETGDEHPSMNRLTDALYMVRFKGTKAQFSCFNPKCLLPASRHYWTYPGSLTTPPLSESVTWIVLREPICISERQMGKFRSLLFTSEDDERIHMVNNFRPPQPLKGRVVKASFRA

hCA IX = hCA IX (Homo sapiens, UniProt Q16790); assay: stopped flow CO2 hydrase assay, hCA IX; type: biochemical; conditions: mean of 3 different assays
hCA XII = hCA XII (Homo sapiens, UniProt O43570); assay: stopped flow CO2 hydrase assay, hCA XII; type: biochemical
Chain of hCA XII (O43570 25-354): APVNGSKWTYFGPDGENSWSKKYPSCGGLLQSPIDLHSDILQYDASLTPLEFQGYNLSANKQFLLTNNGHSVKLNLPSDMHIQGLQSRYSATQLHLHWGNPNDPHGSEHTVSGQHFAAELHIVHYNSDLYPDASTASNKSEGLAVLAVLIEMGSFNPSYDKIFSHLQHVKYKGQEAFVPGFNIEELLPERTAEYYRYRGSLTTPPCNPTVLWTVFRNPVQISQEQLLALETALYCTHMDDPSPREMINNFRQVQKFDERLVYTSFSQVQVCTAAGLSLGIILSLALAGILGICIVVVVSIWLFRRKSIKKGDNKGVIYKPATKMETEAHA

hMAO-A = target: T1, hMAO-A (Homo sapiens, UniProt P21397); assay: hMAO-A inhibition, recombinant enzyme, kynuramine substrate, fluorescence; type: biochemical; conditions: mean ± SD of triplicate determinations
T1 construct: purchased Sigma-Aldrich
T1 sequence (P21397 1-527): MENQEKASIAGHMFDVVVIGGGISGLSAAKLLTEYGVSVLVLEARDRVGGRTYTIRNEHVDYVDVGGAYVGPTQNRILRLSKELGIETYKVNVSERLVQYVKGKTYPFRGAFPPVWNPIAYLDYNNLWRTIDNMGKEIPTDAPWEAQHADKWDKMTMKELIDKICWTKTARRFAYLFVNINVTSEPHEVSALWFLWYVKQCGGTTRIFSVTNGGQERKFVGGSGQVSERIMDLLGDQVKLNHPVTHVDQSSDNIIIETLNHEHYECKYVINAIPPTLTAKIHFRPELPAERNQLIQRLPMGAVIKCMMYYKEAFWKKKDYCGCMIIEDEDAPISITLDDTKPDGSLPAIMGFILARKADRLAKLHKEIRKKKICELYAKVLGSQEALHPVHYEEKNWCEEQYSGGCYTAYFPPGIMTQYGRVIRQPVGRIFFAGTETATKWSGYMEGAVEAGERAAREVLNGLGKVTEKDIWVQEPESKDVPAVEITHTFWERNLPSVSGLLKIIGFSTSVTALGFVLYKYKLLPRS

hMAO-B = target: T2, hMAO-B (Homo sapiens, UniProt P27338); assay: hMAO-B inhibition, recombinant enzyme, kynuramine substrate, fluorescence; type: biochemical; conditions: for IC50: mean ± SD of triplicate determinations; for SI (selectivity index for hMAO-B over hMAO-A): IC50 hMAO-A/IC50 hMAO-B
T2 construct: purchased Sigma-Aldrich
T2 sequence (P27338 1-520): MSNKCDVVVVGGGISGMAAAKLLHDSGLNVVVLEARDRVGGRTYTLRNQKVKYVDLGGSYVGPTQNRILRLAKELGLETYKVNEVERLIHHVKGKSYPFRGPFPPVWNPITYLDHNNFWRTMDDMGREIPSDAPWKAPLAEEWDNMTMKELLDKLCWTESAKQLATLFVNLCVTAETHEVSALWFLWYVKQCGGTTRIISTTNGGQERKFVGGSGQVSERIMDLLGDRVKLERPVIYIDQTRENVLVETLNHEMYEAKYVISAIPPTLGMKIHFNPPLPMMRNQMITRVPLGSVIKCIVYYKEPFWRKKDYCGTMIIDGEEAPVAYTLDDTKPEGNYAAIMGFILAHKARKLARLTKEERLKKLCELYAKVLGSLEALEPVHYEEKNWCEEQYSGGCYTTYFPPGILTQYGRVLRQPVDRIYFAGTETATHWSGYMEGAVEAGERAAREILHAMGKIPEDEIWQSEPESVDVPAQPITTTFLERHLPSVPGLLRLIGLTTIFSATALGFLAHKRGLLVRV

AChE (electric eel) = target: T3, AChE (electric eel) (Electrophorus electricus, UniProt O42275); assay: biochemical; conditions: for IC50: mean ± SD of triplicate determinations
T3 construct: from tissue
T3 sequence (O42275 24-633): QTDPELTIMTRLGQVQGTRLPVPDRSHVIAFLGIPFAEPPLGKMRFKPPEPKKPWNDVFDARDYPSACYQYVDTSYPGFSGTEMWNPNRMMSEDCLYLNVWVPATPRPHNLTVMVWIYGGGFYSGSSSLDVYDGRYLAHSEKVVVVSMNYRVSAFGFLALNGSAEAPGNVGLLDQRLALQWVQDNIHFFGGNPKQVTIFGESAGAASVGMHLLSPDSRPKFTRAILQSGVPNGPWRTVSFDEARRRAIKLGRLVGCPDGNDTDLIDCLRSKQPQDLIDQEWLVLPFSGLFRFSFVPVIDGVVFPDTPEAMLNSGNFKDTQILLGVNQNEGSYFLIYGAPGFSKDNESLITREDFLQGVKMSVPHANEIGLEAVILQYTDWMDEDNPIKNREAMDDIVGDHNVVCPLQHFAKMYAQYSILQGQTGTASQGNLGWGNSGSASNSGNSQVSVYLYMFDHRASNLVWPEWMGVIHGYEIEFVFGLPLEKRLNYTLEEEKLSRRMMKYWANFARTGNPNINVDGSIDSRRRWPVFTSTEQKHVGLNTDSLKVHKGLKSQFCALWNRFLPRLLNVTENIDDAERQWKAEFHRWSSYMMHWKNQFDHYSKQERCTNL

BuChE (equine serum) = target: T4, BuChE (equine serum) (Equus caballus, UniProt P81908); assay: biochemical; type: biochemical; conditions: for IC50: mean ± SD of triplicate determinations
T4 construct: from tissue; host or cells: equine serum
T4 sequence (P81908 whole entry): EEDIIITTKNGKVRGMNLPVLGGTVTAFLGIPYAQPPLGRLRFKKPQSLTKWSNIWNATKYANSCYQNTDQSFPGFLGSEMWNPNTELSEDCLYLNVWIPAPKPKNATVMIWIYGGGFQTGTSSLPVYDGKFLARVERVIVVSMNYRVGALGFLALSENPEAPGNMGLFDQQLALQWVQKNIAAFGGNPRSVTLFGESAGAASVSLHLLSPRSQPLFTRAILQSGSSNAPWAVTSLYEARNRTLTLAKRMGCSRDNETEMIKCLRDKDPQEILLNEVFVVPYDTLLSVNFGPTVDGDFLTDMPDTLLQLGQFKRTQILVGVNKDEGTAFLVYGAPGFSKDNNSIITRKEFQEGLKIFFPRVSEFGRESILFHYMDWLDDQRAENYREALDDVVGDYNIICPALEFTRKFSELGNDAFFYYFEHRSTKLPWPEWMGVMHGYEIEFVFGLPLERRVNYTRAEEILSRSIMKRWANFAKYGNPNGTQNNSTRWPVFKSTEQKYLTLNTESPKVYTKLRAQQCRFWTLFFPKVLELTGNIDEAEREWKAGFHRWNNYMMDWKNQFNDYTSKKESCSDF

[1] = test system: CTX/TNA2 rat astrocytes pre-stimulated with LPS; assay: Cell metabolic activity assay (MTT), LPS pre-stimulated astrocytes; type: cell-based; conditions: pre-stimulated with 0.1 µg/mL LPS 20 h, then compounds 24 and 72 h
CTX/TNA2 rat astrocytes = assay: Cell metabolic activity assay (MTT), non-inflammatory conditions; type: cell-based; conditions: 0-150 µM, 24-72 h
[2] = test system: H2O2 generation in rat astrocytes pre-stimulated with LPS; assay: Hydrogen peroxide measurement in supernatants of LPS pre-stimulated astrocytes; type: cell-based; conditions: 24 h
Protocol: (§1) Cells were seeded (8 × 10^3/well) and were left to adhere for 24 h in 96-well plates (Falcon®, Corning Incorporated, NY, USA). The medium was removed, incubating the cell monolayer in the presence of increasing concentrations of DEP, AAZ, and test compounds (0–150 µM) for 24–72 h. In a second set of experiments, cells were pre-incubated in the presence of 0.1 µg/mL LPS (lipopolysaccharide from E. coli, purchased from Merck, Darmstadt, Germany) for 20 h and further exposed to DEP, AAZ, and test compounds in the same experimental conditions.
At 24 h, cell supernatants were taken from the cultures used for the MTT assay. The quantitative determination of H2O2 released in supernatants was performed by means of a H2O2 colorimetric kit (cat. no. ADI-907-015, Enzo Life Sciences, Inc., Farmingdale, NY, USA). Then, 50 µL of supernatant/well was used and 100 µL of color reagent was added in each well. Next, wells were mixed and afterwards incubated for 30 min at r.t. The OD was measured following the manufacturer’s instructions.

[3] = test system: Interleukin-6 secretion from rat astrocytes pre-stimulated with LPS; assay: IL-6 secretion by ELISA in LPS pre-stimulated astrocytes; type: cell-based; conditions: 24 h, compared to LPS alone
Protocol: as §1
The amounts (pg/mL) of interleukin-6 (IL-6) were analyzed in cell supernatants using an ELISA kit (Enzo Life Sciences Inc., Lausen, Switzerland) following the manufacturer’s instructions. Absorbance was read at 450 nm and cytokine concentration was determined. Data obtained were normalized on MTT optical densities.

SMILES	Ki (hCA I) [µM]	Ki (hCA II) [µM]	Ki (hCA VII) [µM]	Ki (hCA IX) [µM]	Ki (hCA XII; mean of 3 different assays) [µM]	IC50 (hMAO-A)	IC50 (hMAO-B)	IC50 (AChE (electric eel)) [µM]	IC50 (BuChE (equine serum)) [µM]	cell metabolic activity (MTT) versus LPS only control [1]	SI (selectivity index for hMAO-B over hMAO-A) (hMAO-B)	cell metabolic activity (MTT), biocompatibility (CTX/TNA2 rat astrocytes)	IL-6 secretion [3]	other results
C#CCCCOc1ccc2ccc(=O)oc2c1 [Compound 8, 7-(Pent-4-yn-1-yloxy)-2H-chromen-2-one]	> 10	> 10	0.0693	0.0266	0.0065	5.7 ± 0.21 µM	0.51 ± 0.0099 µM	> 100	> 100	able to counteract the LPS-induced increase in cell metabolic activity				
CC#CCOc1ccc2oc(=O)ccc2c1 [Compound 4, 6-(But-2-yn-1-yloxy)-2H-chromen-2-one]	> 10	> 10	0.0633	0.0242	0.0043	> 10 µM and 55.7 µM	> 10 µM and 12.1 µM	> 100	> 100		4.6	well tolerated up to 48 h and display a good biocompatibility at the longest exposure time (72 h)		H2O2 generation ([2]; 10 µM): restoring it to the untreated control levels
CCC#CCOc1ccc2ccc(=O)oc2c1 [Compound 7, 7-(Pent-2-yn-1-yloxy)-2H-chromen-2-one]	> 10	> 10	0.0635	0.013		11.2 ± 0.39 µM	0.008 ± 0.00062 µM		59 ± 1					Ki (hCA XII): 0.0068 µM; inhibition at 100 µM (AChE (electric eel); read-out: inhibition of AChE at 100 µM, 100 µM): 50%; H2O2 generation ([2]; 0.01 µM): restoring it to the untreated control levels; also recorded: strong reduction in H2O2 release
CC(=O)Nc1nnc(S(N)(=O)=O)s1 [AAZ, acetazolamide, reference compound]													the highest concentrations of AAZ are capable of decreasing IL-6 secretion in a significant manner	
C#CCCCCOc1cc(=O)oc2ccccc12 [Compound 2, 4-(Hex-5-yn-1-yloxy)-2H-chromen-2-one]	> 10	> 10	0.0469	0.009	0.0048	> 10 µM and 10.8 µM	> 10 µM and 25.9 µM	> 100	21 ± 1	able to counteract the LPS-induced increase in cell metabolic activity	0.42	good biocompatibility, with a cell metabolic activity significantly decreased only after 48 h and at the highest concentration tested (150 µM)		BuChE mode of inhibition (BuChE (equine serum); Cornish-Bowden plots): mixed inhibition mechanism; Kib BuChE (inhibitor binding the ES complex) (BuChE (equine serum); Cornish-Bowden plots): 25 ± 3 µM; Ki (BuChE (equine serum); Cornish-Bowden plots, read-out: Kia BuChE (inhibitor binding the free enzyme) (converted)): 13 µM
C#CCOc1ccc2ccc(=O)oc2c1 [Compound 5, 7-(Prop-2-ynyloxy)-2H-chromen-2-one]	> 10	> 10	0.0519		0.73		5.79 ± 0.26 µM	> 100	> 100			cell metabolic activity significantly decreases at all the concentrations tested at 48 h	had an effect on IL-6 release	H2O2 generation ([2]; 0.01 µM): restoring it to the untreated control levels
CC#CCOc1ccc2ccc(=O)oc2c1 [Compound 6, 7-(But-2-yn-1-yloxy)-2H-chromen-2-one]	> 10	> 10	0.0682	0.0093	0.0068	21.3 ± 0.77 µM	0.25 ± 0.017 µM	> 100	> 100		85.3	cell metabolic activity significantly decreases at all the concentrations tested at 48 h		H2O2 generation ([2]; 150 µM): restoring it to the untreated control levels
C#CCCCOc1cc(=O)oc2ccccc12 [Compound 1, 4-(Pent-4-yn-1-yloxy)-2H-chromen-2-one]	6.26	> 10	0.0598	0.0172	0.0048	> 10 µM and 51.2 µM	> 100 µM	> 100	33 ± 1		<0.51	good biocompatibility, with a cell metabolic activity significantly decreased only after 48 h and at the highest concentration tested (150 µM)		
C#CCOc1ccc2oc(=O)ccc2c1 [Compound 3, 6-(Prop-2-ynyloxy)-2H-chromen-2-one]			0.0617			> 10 µM and 40.2 µM	> 10 µM and 65.4 µM	> 100	> 100	able to counteract the LPS-induced increase in cell metabolic activity		well tolerated up to 48 h and display a good biocompatibility at the longest exposure time (72 h)		
C#CCN(C)C(C)Cc1ccccc1 (centres unmarked) [DEP, deprenyl, reference compound]													increases the amount of IL-6 at the highest concentration tested	
